Results taken from US6756359B2, “C12 modified erythromycin macrolides and ketolides having antibacterial activity” (Chiron Corporation, priority 2001, dated 2004).
Values after ≈ are worked out from the molar mass of the structure shown.

Experiments:
Assay in all cases: Antibacterial activity in vitro, MIC by broth microdilution
[1] = system: E. coli Esco_25922; assay type: cell-based; details: Table 3, Strain ID M: E. coli Esco_25922; unit assumed
Summary of the method: (§1)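 NCCLS microdilution; CAMHB; 2-fold series; 3×10^5–7×10^5 CFU/mL; 35° C., 18-24 h, ambient air except S. pneumoniae (5-10% CO2, lysed horse blood 2-5%). Endpoint: no visible growth.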

[2] = system: E. faecalis Enfa_29212; assay type: cell-based; details: unit assumed
Summary of the method: as §1

[3] = system: S. epidermidis Step_14990; assay type: cell-based; details: unit assumed
Summary of the method: as §1

[4] = system: S. epidermidis Step_f50654 Pen S; assay type: cell-based; details: unit assumed
Summary of the method: as §1

[5] = system: S. pyogenes Stpy_8668; assay type: cell-based
Summary of the method: as §1

[6] = system: S. pneumoniae Stpn_280-962 Pen S; assay type: cell-based, Streptococcus pneumoniae
Summary of the method: as §1

[7] = system: S. pneumoniae Stpn_297-749 Pen R; assay type: cell-based, Streptococcus pneumoniae
Summary of the method: as §1

[8] = system: S. pneumoniae Stpn_49619; assay type: cell-based, Streptococcus pneumoniae
Summary of the method: as §1

[9] = system: S. pneumoniae Stpn_Erm 6849; assay type: cell-based, Streptococcus pneumoniae; details: unit assumed
Summary of the method: as §1

[10] = system: S. pneumoniae Stpn_Erm S 4297; assay type: cell-based, Streptococcus pneumoniae
Summary of the method: as §1

[11] = system: S. pneumoniae Stpn_Mef 5654; assay type: cell-based, Streptococcus pneumoniae; details: unit assumed
Summary of the method: as §1

[12] = system: S. pneumoniae Stpn_Mef S 3427; assay type: cell-based, Streptococcus pneumoniae
Summary of the method: as §1

[13] = system: H. influenzae Hain_49247; assay type: cell-based, Haemophilus influenzae; details: unit assumed
Summary of the method: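 Visible-growth inhibition defined the MIC, obtained by NCCLS broth microdilution at 35° C. over 18-24 hours with a final inoculum of 3×10^5–7×10^5 CFU/mL.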

[14] = system: S. aureus Stau_29213; assay type: cell-based; details: Table 5, Strain ID A: S. aureus Stau_29213; unit assumed
Summary of the method: as §1

[15] = Table 5, Strain ID D: E. faecalis Enfa_29212
[16] = Table 5, Strain ID B: S. epidermidis Step_14990
[17] = Table 5, Strain ID C: S. epidermidis Step_f50654
[18] = Table 5, Strain ID E: S. pyogenes Stpy_8668
[19] = Table 5, Strain ID H: S. pneumoniae Stpn_280-962
[20] = Table 5, Strain ID G: S. pneumoniae Stpn_297-749
[21] = Table 5, Strain ID F: S. pneumoniae Stpn_49619
[22] = Table 5, Strain ID I: S. pneumoniae Stpn_Erm 6849
[23] = Table 5, Strain ID J: S. pneumoniae Stpn_Erm S 4297
[24] = Table 5, Strain ID K: S. pneumoniae Stpn_Mef 5654
[25] = Table 5, Strain ID L: S. pneumoniae Stpn_Mef S 3427, unit assumed
[26] = Table 5, Strain ID M: H. influenzae Hain_49247

SMILES | MIC [2, 15] [µg/mL] | MIC [14] [µg/mL] | MIC [3, 16] [µg/mL] | MIC [4, 17] [µg/mL] | MIC [5, 18] | MIC [6, 19] | MIC [7, 20] | MIC [8, 21] | MIC [9, 22] [µg/mL] | MIC [10, 23] | MIC [11, 24] [µg/mL] | MIC [12, 25] [µg/mL] | MIC [13, 26] [µg/mL] | further results
CC[C@H]1OC(=O)[C@H](C)[C@@H](O[C@H]2C[C@@](C)(OC)[C@@H](O)[C@H](C)O2)[C@H](C)[C@@H](O[C@@H]2O[C@H](C)C[C@H](N(C)C)[C@H]2O)[C@](C)(OC)C[C@@H](C)C(=O)[C@H](C)[C@@H](O)[C@]1(C)O [Clar., clarithromycin, reference compound] |  |  |  |  |  |  |  |  |  |  |  |  |  | MIC [1]: 50 µg/mL (≈ 66.8 µM); MIC ([2]; Table 3, Strain ID C: E. faecalis Enfa_29212): 0.78 µg/mL (≈ 1.04 µM); MIC ([3]; Table 3, Strain ID A: S. epidermidis Step_14990): 0.2 µg/mL (≈ 0.267 µM); MIC ([4]; Table 3, Strain ID B: S. epidermidis Step_f50654 Pen S): 0.2 µg/mL (≈ 0.267 µM); MIC ([5]; Table 3, Strain ID D: S. pyogenes Stpy_8668): ≦0.05; MIC ([6]; Table 3, Strain ID G: S. pneumoniae Stpn_280-962 Pen S): ≦0.05; MIC ([7]; Table 3, Strain ID F: S. pneumoniae Stpn_297-749 Pen R): ≦0.05; MIC ([8]; Table 3, Strain ID E: S. pneumoniae Stpn_49619): ≦0.05; MIC ([9]; Table 3, Strain ID H: S. pneumoniae Stpn_Erm 6849): > 50 µg/mL; MIC ([10]; Table 3, Strain ID I: S. pneumoniae Stpn_Erm S 4297, unit assumed): > 50 µg/mL; MIC ([11]; Table 3, Strain ID J: S. pneumoniae Stpn_Mef 5654): 6.25 µg/mL (≈ 8.36 µM); MIC ([12]; Table 3, Strain ID K: S. pneumoniae Stpn_Mef S 3427, unit assumed): 1.56 µg/mL (≈ 2.09 µM); MIC ([13]; Table 3, Strain ID L: H. influenzae Hain_49247): 12.5 µg/mL (≈ 16.7 µM)
CC[C@H]1OC(=O)[C@@](C)(F)C(=O)[C@H](C)[C@@H](O[C@@H]2O[C@H](C)C[C@H](N(C)C)[C@H]2O)[C@@](C)(OC)C[C@@H](C)C(=O)[C@H](C)[C@H]2N(CCCC(C)(C)n3cnc4cccnc43)C(=O)O[C@]12CC [Example 40, (3aS,4R,7S,9R,10R,11S,13R,15R,15aR)-3a,4-diethyl-7-fluoro-1-[4-(3H-imidazo[4,5-b]pyridin-3-yl)-4-methylpentyl]-11-methoxy-7,9,11,13,15-pentamethyl-2,6,8,14-tetraoxotetradecahydro-2H-oxacyclotetradecino[4,3-d][1,3]oxazol-10-yl 3,4,6-trideoxy-3-(dimethylamino)-D-xylo-hexopyranoside] | 0.1 (≈ 0.118 µM) | 0.2 (≈ 0.236 µM) | 0.2 (≈ 0.236 µM) | 0.2 (≈ 0.236 µM) | ≦0.05 | ≦0.05 | ≦0.05 | ≦0.05 | 0.2 (≈ 0.236 µM) | ≦0.05 | 0.78 (≈ 0.922 µM) | 0.2 (≈ 0.236 µM) | 6.25 (≈ 7.39 µM) | 
C=C[C@]12OC(=O)N(CCCCn3cnc(-c4cccnc4)c3)[C@@H]1[C@@H](C)C(=O)[C@H](C)C[C@@](C)(OC)[C@H](OC1O[C@H](C)C[C@H](N(C)C)[C@H]1O)[C@@H](C)C(=O)[C@@H](C)C(=O)O[C@@H]2CC (stereo partly drawn) [Example 48, (3aS,4R,7R,9R,10R,11R,13R,15R,15aR)-4-ethyl-11-methoxy-7,9,11,13,15-pentamethyl-2,6,8,14-tetraoxo-1-[4-(4-pyridin-3-yl-1H-imidazol-1-yl)butyl]-3a-vinyltetradecahydro-2H-oxacyclotetradecino[4,3-d][1,3]oxazol-10-yl 3,4,6-trideoxy-3-(dimethylamino)-D-xylo-hexopyranoside] | 0.1 (≈ 0.121 µM) | 0.2 (≈ 0.243 µM) | 0.2 (≈ 0.243 µM) | 0.2 (≈ 0.243 µM) | ≦0.05 | ≦0.05 | ≦0.05 | ≦0.05 | 0.4 (≈ 0.485 µM) | ≦0.05 | 0.78 (≈ 0.947 µM) | 0.1 (≈ 0.121 µM) | 3.13 (≈ 3.8 µM) | 
C=C[C@]12OC(=O)N(CCCCn3cnc(-c4cccnc4)c3)[C@@H]1[C@@H](C)C(=O)[C@H](C)C[C@](C)(OC)[C@H](OC1O[C@H](C)C[C@H](N(C)C)[C@H]1O)[C@@H](C)C(=O)[C@](C)(F)C(=O)O[C@@H]2CC (stereo partly drawn) [Example 49, (3aS,4R,7S,9R,10R,11S,13R,15R,15aR)-4-ethyl-7-fluoro-11-methoxy-7,9,11,13,15-pentamethyl-2,6,8,14-tetraoxo-1-[4-(4-pyridin-3-yl-1H-imidazol-1-yl)butyl]-3a-vinyltetradecahydro-2H-oxacyclotetradecino[4,3-d][1,3]oxazol-10-yl 3,4,6-trideoxy-3-(dimethylamino)-D-xylo-hexopyranoside] | 0.1 (≈ 0.119 µM) | 0.2 (≈ 0.238 µM) | 0.2 (≈ 0.238 µM) | 0.2 (≈ 0.238 µM) | ≦0.05 | ≦0.05 | ≦0.05 | ≦0.05 | 0.1 (≈ 0.119 µM) | ≦0.05 | 0.78 (≈ 0.926 µM) |  | 6.25 (≈ 7.42 µM) | MIC ([12]; Table 5, Strain ID L: S. pneumoniae Stpn_Mef S 3427): ≦0.05
C=C[C@]12OC(=O)N(CCCC(C)(C)n3cnc(-c4cccnc4)c3)[C@@H]1[C@@H](C)C(=O)[C@H](C)C[C@](C)(OC)[C@H](OC1O[C@H](C)C[C@H](N(C)C)[C@H]1O)[C@@H](C)C(=O)[C@@H](C)C(=O)O[C@@H]2CC (stereo partly drawn) [Example 50, (3aS,4R,7R,9R,10R,11S,13R,15R,15aR)-4-ethyl-11-methoxy-7,9,11,13,15-pentamethyl-1-[4-methyl-4-(4-pyridin-3-yl-1H-imidazol-1-yl)pentyl]-2,6,8,14-tetraoxo-3a-vinyltetradecahydro-2H-oxacyclotetradecino[4,3-d][1,3]oxazol-10-yl 3,4,6-trideoxy-3-(dimethylamino)-D-xylo-hexopyranoside] | 0.2 (≈ 0.235 µM) | 0.4 (≈ 0.469 µM) | 0.4 (≈ 0.469 µM) | 0.2 (≈ 0.235 µM) | ≦0.05 | ≦0.05 | ≦0.05 | ≦0.05 | 0.1 (≈ 0.117 µM) | ≦0.05 | 0.4 (≈ 0.469 µM) | 0.1 (≈ 0.117 µM) | 6.25 (≈ 7.33 µM) | 
C/C=C\[C@]12OC(=O)N(CCCCn3cnc(-c4cccnc4)c3)[C@@H]1[C@@H](C)C(=O)[C@H](C)C[C@](C)(OC)[C@H](O[C@@H]1O[C@H](C)C[C@H](N(C)C)[C@H]1O)[C@@H](C)C(=O)[C@](C)(F)C(=O)O[C@@H]2CC [Example 66, (3aS,4R,7S,9R,10R,11S,13R,15R,15aR)-4-ethyl-7-fluoro-11-methoxy-7,9,11,13,15-pentamethyl-2,6,8,14-tetraoxo-3a-[(1Z)-prop-1-enyl]-1-[4-(4-pyridin-3-yl-1H-imidazol-1-yl)butyl]tetradecahydro-2H-oxacyclotetradecino[4,3-d][1,3]oxazol-10-yl 3,4,6-trideoxy-3-(dimethylamino)-D-xylo-hexopyranoside] | 0.01 (≈ 0.0117 µM) | 0.2 (≈ 0.234 µM) | 0.2 (≈ 0.234 µM) | 0.2 (≈ 0.234 µM) | ≦0.05 | ≦0.05 | ≦0.05 | ≦0.05 | 0.2 (≈ 0.234 µM) |  | 0.4 (≈ 0.467 µM) | 0.1 (≈ 0.117 µM) | 6.25 (≈ 7.3 µM) | MIC ([10]; Table 5, Strain ID J: S. pneumoniae Stpn_Erm S 4297, unit assumed): 0.1 µg/mL (≈ 0.117 µM)
